The record followed here is US10933063B2 (priority 2017, dated 2021).

Like-named read-outs stand apart in the source and are kept apart here.

The target in test [1] is T1, BTK (Homo sapiens (Human), UniProt Q06187). The note with it: read-out: BTK Inhibition.
For test [2], the target named is T1, BTK. In words: biochemical.

T1 sequence (Q06187 whole entry, looked up, species assumed): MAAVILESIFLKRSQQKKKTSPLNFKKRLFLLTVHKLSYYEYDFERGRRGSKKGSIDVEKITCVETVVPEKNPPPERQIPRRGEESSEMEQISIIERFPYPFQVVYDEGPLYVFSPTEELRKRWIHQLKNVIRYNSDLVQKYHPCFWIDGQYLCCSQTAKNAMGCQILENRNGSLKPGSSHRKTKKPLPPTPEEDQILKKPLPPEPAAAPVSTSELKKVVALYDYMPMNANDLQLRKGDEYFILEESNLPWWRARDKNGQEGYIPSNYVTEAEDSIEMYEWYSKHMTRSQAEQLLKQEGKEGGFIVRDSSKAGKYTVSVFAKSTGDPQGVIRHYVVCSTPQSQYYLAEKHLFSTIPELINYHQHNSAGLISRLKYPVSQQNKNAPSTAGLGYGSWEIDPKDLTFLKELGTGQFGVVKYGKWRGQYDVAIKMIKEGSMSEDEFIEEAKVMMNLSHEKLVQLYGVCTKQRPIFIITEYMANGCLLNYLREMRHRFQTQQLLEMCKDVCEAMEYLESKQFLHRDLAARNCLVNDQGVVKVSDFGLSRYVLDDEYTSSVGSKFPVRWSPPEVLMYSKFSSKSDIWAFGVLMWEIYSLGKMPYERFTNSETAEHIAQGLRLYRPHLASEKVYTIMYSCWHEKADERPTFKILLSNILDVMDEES

In the case of `CC#CC(=O)N1CCC[C@H]1c1nc(-c2ccc(Oc3ccccc3)nc2)c2cnccn12` [Example 15, (S)-1-(2-(1-(6-phenoxypyridin-3-yl)imidazo[1,5-a]pyrazin-3-yl)pyrrolidin-1-yl)but-2-yn-1-one], at BTK [1], the IC50 is > 10000 nM. As to `C=CC(=O)N1CCC[C@H]1c1nc(-c2ccc(Oc3cccc(Cl)c3F)cc2)c2cnccn12` [Example 22, (S)-1-(2-(1-(4-(3-chloro-2-fluorophenoxy)phenyl)imidazo[1,5-a]pyrazin-3-yl)pyrrolidin-1-yl)prop-2-en-1-one], the IC50 at BTK [1] was < 10 nM. The same measure, in the same setting: for `C=CC(=O)N1CCC[C@H]1c1nc(-c2ccc(Oc3cccc(Cl)c3)cc2)c2cnccn12` [Example 28, (S)-1-(2-(1-(4-(3-chlorophenoxy)phenyl)imidazo[1,5-a]pyrazin-3-yl)pyrrolidin-1-yl)prop-2-en-1-one] the value was < 10 nM; for `C=CC(=O)N1CCC[C@H]1c1nc(-c2ccc(Oc3cccc(OC)c3C)cc2)c2cnccn12` [Example 29, (S)-1-(2-(1-(4-(3-methoxy-2-methylphenoxy)phenyl)imidazo[1,5-a]pyrazin-3-yl)pyrrolidin-1-yl)prop-2-en-1-one], < 10 nM; for `CC#CC(=O)N1CCC[C@H]1c1nc(-c2ccc(Oc3cccc(OC)c3F)cc2)c2c(C(N)=O)nccn12` [Example 38, (S)-3-(1-(but-2-ynoyl)pyrrolidin-2-yl)-1-(4-(2-fluoro-3-methoxyphenoxy)phenyl)imidazo[1,5-a]pyrazine-8-carboxamide], > 10000 nM. Same read-out and setting: for `C=CC(=O)N1CCCC[C@H]1c1nc(-c2ccc(Oc3cccc(C)c3)cc2)c2c(C)nccn12` [Example 40, (S)-1-(2-(8-methyl-1-(4-(m-tolyloxy)phenyl)imidazo[1,5-a]pyrazin-3-yl)piperidin-1-yl)prop-2-en-1-one] the value was < 10 nM; for `C=CC(=O)N1CCCC[C@H]1c1nc(-c2ccc(Oc3cccc(OC)c3)cc2)c2c(C)nccn12` [Example 48, (S)-1-(2-(1-(4-(3-methoxyphenoxy)phenyl)-8-methylimidazo[1,5-a]pyrazin-3-yl)piperidin-1-yl)prop-2-en-1-one], < 10 nM; for `C=CC(=O)N1CCCC[C@H]1c1nc(-c2ccc(Oc3cccc(F)c3)cc2)c2c(C)nccn12` [Example 55, (S)-1-(2-(1-(4-(3-fluorophenoxy)phenyl)-8-methylimidazo[1,5-a]pyrazin-3-yl)piperidin-1-yl)prop-2-en-1-one], < 10 nM. Take `C=CC(=O)N1CCC[C@H]1c1nc(-c2ccc(Oc3cccc(OC)c3F)cc2)c2c(C)nccn12` [Example 61, (S)-1-(2-(1-(4-(2-fluoro-3-methoxyphenoxy)phenyl)-8-methylimidazo[1,5-a]pyrazin-3-yl)pyrrolidin-1-yl)prop-2-en-1-one]: the IC50 on BTK [1] was < 10 nM. Same read-out and setting: for `C=CC(=O)N1CCC[C@H]1c1nc(-c2ccc(Oc3cccc(OC)c3F)cc2)c2cncc(C)n12` [Example 62, (S)-1-(2-(1-(4-(2-fluoro-3-methoxyphenoxy)phenyl)-5-methylimidazo[1,5-a]pyrazin-3-yl)pyrrolidin-1-yl)prop-2-en-1-one] the value was < 10 nM; for `C=CC(=O)N1CCC[C@H]1c1nc(-c2ccc(Oc3cccc(OC)c3F)cc2)c2c(C)ncc(C)n12` [Example 64, (S)-1-(2-(1-(4-(2-fluoro-3-methoxyphenoxy)phenyl)-5,8-dimethylimidazo[1,5-a]pyrazin-3-yl)pyrrolidin-1-yl)prop-2-en-1-one], < 10 nM; for `C=CC(=O)N1CC[C@@H](c2nc(-c3ccc(Oc4cccc(OC)c4F)cc3)c3cnccn23)C1` [Example 68, (R)-1-(3-(1-(4-(2-fluoro-3-methoxyphenoxy)phenyl)imidazo[1,5-a]pyrazin-3-yl)pyrrolidin-1-yl)prop-2-en-1-one], < 10 nM. Still for that read-out and setting: for `CC#CC(=O)N1CC[C@@H](c2nc(-c3ccc(Oc4cccc(OC)c4F)cc3)c3cnccn23)C1` [Example 69, (R)-1-(3-(1-(4-(2-fluoro-3-methoxyphenoxy)phenyl)imidazo[1,5-a]pyrazin-3-yl)pyrrolidin-1-yl)but-2-yn-1-one] the value was < 10 nM. On the same count and under the same terms, for `C=CC(=O)N1CC[C@@H](c2nc(-c3ccc(Oc4cccc(OC)c4F)cc3)c3c(C)ncc(C)n23)C1` [Example 74, (R)-1-(3-(1-(4-(2-fluoro-3-methoxyphenoxy)phenyl)-5,8-dimethylimidazo[1,5-a]pyrazin-3-yl)pyrrolidin-1-yl)prop-2-en-1-one] the value was < 10 nM; for `C=CC(=O)N1CCC[C@H]1c1nc(-c2ccc(Oc3cccc(OC)c3F)cc2)c2cncc(OC)n12` [Example 82, (S)-1-(2-(1-(4-(2-fluoro-3-methoxyphenoxy)phenyl)-5-methoxyimidazo[1,5-a]pyrazin-3-yl)pyrrolidin-1-yl)prop-2-en-1-one], < 10 nM; for `C=CC(=O)N1CC[C@@H](c2nc(-c3ccc(Oc4cccc(OC)c4F)cc3)c3cncc(OC)n23)C1` [Example 85, (R)-1-(3-(1-(4-(2-fluoro-3-methoxyphenoxy)phenyl)-5-methoxyimidazo[1,5-a]pyrazin-3-yl)pyrrolidin-1-yl)prop-2-en-1-one], < 10 nM.

`C=CC(=O)N1CCCC[C@H]1c1nc(-c2ccc(C(=O)Nc3ccccn3)cc2)c2cncc(C)n12` [Example 186, (S)-4-(3-(1-acryloylpiperidin-2-yl)-5-methylimidazo [1,5-a]pyrazin-1-yl)-N-(pyridin-2-yl)benzamide]: the IC50 against BTK [2] was 100 to 1000 nM.

On BTK [2], `CC#CC(=O)N1CCCC[C@H]1c1nc(-c2ccc(C(=O)Nc3ccccn3)cc2)c2cncc(C)n12` [Example 187, (S)-4-(3-(1-(but-2-ynoyl)piperidin-2-yl)-5-methylimidazo[1,5-a]pyrazin-1-yl)-N-(pyridin-2-yl)benzamide] came in with an IC50 of 1000 to 10000 nM. Regarding `C=CC(=O)N1CCCC[C@H]1c1nc(-c2ccc(C(=O)Nc3ccccn3)cc2)c2c(C)ncc(C)n12` [Example 188, (S)-4-(3-(1-acryloylpiperidin-2-yl)-5,8-dimethylimidazo [1,5-a]pyrazin-1-yl)-N-(pyridin-2-yl)benzamide], at BTK [2], the IC50 lay in the range of 10 to 100 nM.

At BTK [2], `CC#CC(=O)N1CCCC[C@H]1c1nc(-c2ccc(C(=O)Nc3ccccn3)cc2)c2c(C)ncc(C)n12` [Example 189, (S)-4-(3-(1-(but-2-ynoyl)piperidin-2-yl)-5,8-dimethylimidazo[1,5-a]pyrazin-1-yl)-N-(pyridin-2-yl)benzamide] showed an IC50 of 100 to 1000 nM.

The molecule `CC#CC(=O)N1CC[C@@H](c2nc(-c3ccc(C(=O)Nc4ccccn4)cc3)c3cncc(OCC)n23)C1` [Example 193, (R)-4-(3-(1-(but-2-ynoyl)pyrrolidin-3-yl)-5-ethoxyimidazo[1,5-a]pyrazin-1-yl)-N-(pyridin-2-yl)benzamide] displayed an IC50 against BTK [2] of 100 to 1000 nM. The same measure, in the same setting: under `C=CC(=O)N1CC[C@@H](c2nc(-c3ccc(C(=O)Nc4cc(C(F)(F)F)ccn4)cc3)c3cnccn23)C1` [Example 195, (R)-4-(3-(1-acryloylpyrrolidin-3-yl)imidazo[1,5-a]pyrazin-1-yl)-N-(4-(trifluoromethyl)pyridin-2-yl)benzamide] stands 10 to 100 nM. Still for that read-out and setting: for `C=CC(=O)N1CCCC[C@H]1c1nc(-c2ccc(C(=O)Nc3cc(C(F)(F)F)ccn3)cc2)c2c(C(F)(F)F)nccn12` [Example 201, (S)-4-(3-(1-acryloylpiperidin-2-yl)-8-(trifluoromethyl)imidazo[1,5-a]pyrazin-1-yl)-N-(4-(trifluoromethyl)pyridin-2-yl)benzamide] the value was 1000 to 10000 nM; for `CC#CC(=O)N1CC[C@@H](c2nc(-c3ccc(C(=O)Nc4ccccn4)cc3)c3c(C)ncc(OCC)n23)C1` [Example 205, (R)-4-(3-(1-(but-2-ynoyl)pyrrolidin-3-yl)-5-ethoxy-8-methylimidazo[1,5-a]pyrazin-1-yl)-N-(pyridin-2-yl)benzamide], 10 to 100 nM. The same measure, in the same setting: for `CC#CC(=O)N1CCC[C@H]1c1nc(-c2ccc(C(=O)Nc3ccccn3)cc2)c2c(CO)nccn12` [Example 207, (S)-4-(3-(1-(but-2-ynoyl)pyrrolidin-2-yl)-8-(hydroxymethyl)imidazo [1,5-a]pyrazin-1-yl)-N-(pyridin-2-yl)benzamide] the value was 100 to 1000 nM; for `CC#CC(=O)N1CCC[C@H]1c1nc(-c2ccc(C(=O)Nc3cc(C(F)(F)F)ccn3)cc2F)c2c(CO)nccn12` [Example 208, (S)-4-(3-(1-(but-2-ynoyl)pyrrolidin-2-yl)-8-(hydroxymethyl)imidazo [1,5-a]pyrazin-1-yl)-3-fluoro-N-(4-(trifluoromethyl)pyridin-2-yl)benzamide], 100 to 1000 nM. `CC#CN1CCC[C@H]1c1nc(-c2ccc(C(=O)Nc3cc(C(F)(F)F)ccn3)cc2)c2c(CF)nccn12` [Example 209, (S)-4-(8-(fluoromethyl)-3-(1-(prop-1-yn-1-yl)pyrrolidin-2-yl)imidazo [1,5-a]pyrazin-1-yl)-N-(4-(trifluoromethyl)pyridin-2-yl)benzamide]: at BTK [2], the IC50 fell in the range of 100 to 1000 nM. On to `CC#CN1CCC[C@H]1c1nc(-c2ccc(C(=O)Nc3cc(C(F)(F)F)ccn3)cc2)c2c(CO)nccn12` [Example 210, (S)-4-(8-(hydroxymethyl)-3-(1-(prop-1-yn-1-yl)pyrrolidin-2-yl)imidazo [1,5-a]pyrazin-1-yl)-N-(4-(trifluoromethyl)pyridin-2-yl)benzamide], for which, on BTK [2], the IC50 is 100 to 1000 nM.

As to `CC#CC(=O)N1CC[C@@H](c2nc(-c3ccc(C(=O)Nc4cc(C(F)(F)F)ccn4)cc3)c3cnccn23)C1` [Example 211, (R)-4-(3-(1-(but-2-ynoyl)pyrrolidin-3-yl)imidazo[1,5-a]pyrazin-1-yl)-N-(4-(trifluoromethyl)pyridin-2-yl)benzamide], the IC50 against BTK [2] was in the range of 10 to 100 nM. On the same count and under the same terms, under `CC#CC(=O)N1CC[C@@H](c2nc(-c3ccc(C(=O)Nc4cc(C(F)(F)F)ccn4)cc3F)c3cnccn23)C1` [Example 212, (R)-4-(3-(1-(but-2-ynoyl)pyrrolidin-3-yl)imidazo [1,5-a]pyrazin-1-yl)-3-fluoro-N-(4-(trifluoromethyl)pyridin-2-yl)benzamide] stands 10 to 100 nM; under `COc1cccc(Oc2ccc(-c3nc([C@@H]4CCC5CCC(=O)N5C4)n4ccncc34)cc2)c1F` (stereo partly drawn) [Example 213, (6R)-6-(1-(4-(2-fluoro-3-methoxyphenoxy)phenyl)imidazo[1,5-a]pyrazin-3-yl)hexahydroindolizin-3(2H)-one], 100 to 1000 nM.
